Columns and labels:
[1] = test system: mutated form of SPT (C133W); format: cell-based; conditions: HEK293 C133W; for SPT activity: fumonisin B1 24 h, 1 mM L-cycloserine, 10 mM D-serine
Description: Cells were cultivated in normal media without any supplementation (A) or in the presence of 10 mM L-alanine (B), 10 mM glycine (C); 1 mM L-cycloserine (D); 10 mM D-alanine (E), 10 mM D-serine (F) or 10 mM L-serine (G).
HEK293 cells expressing a mutated form of SPT (C133W) were cultured in the presence of various amino acids and structurally related compounds. The cells were additionally treated with fumonisin B1 (see Example 1).
(§1) A further suitable method to screen for putative suppressors of deoxy-sphingolipid synthesis is as follows: a suitable cell line (e.g. HEK293) is cultured to approximately 60% confluency. The compound of interest is added to the culture medium in the appropriate concentration. Additionally, fumonisin B1 (FB1) is added to a final concentration of 10 μg/ml. After 24 h of incubation, cells are washed with PBS and harvested and an aliquot separated for cell counting. The remaining cells are pelleted and extracted in 500 μl extraction buffer (4 volumes MeOH/KOH+1 volume CHCl3), including an internal reference standard (e.g. deuteriated (d7)-sphinganine, (d7)-sphingosine or synthetic C17-sphingosine). Subsequently, 500 μl chloroform, 500 μl alkaline water and 100 μl 2N ammonia are added, followed by centrifugation (120000×g, 5 min). The upper phase is discarded and the organic phase washed twice with alkaline water. Lipids are dried under a stream of N2 and resolubilized in 50 μl ethanol (95%) and 100 μl methanol:H2O (85:15). The lipids are finally derivatized with o-phthaldialdehyde (OPA) and analysed by LC-MS. OPA derivates are separated on a C18 column. Mobile phase is ammonium acetate (5 mM):methanol=17:83 (25 min, isocratic), followed by a wash with 100% methanol (5 min) at a flow rate of 300 μl/min. Deoxysphingoid bases are ionised by APCI (atmospheric pressure chemical ionisation) and analysed in positive ion mode.

cellular SPT activity = experiment: Accumulation of sphingoid bases in HEK 293 wt cells treated with fumonisin B1 and cytostatics; format: cell-based; conditions: for DoxSA generation / SA (sphinganine) generation / accumulation: fumonisin B1, increasing concentrations of drug
Description: HEK 293 wt cells were cultured in the presence of increasing concentrations of paclitaxel (FIG. 6-I), etoposide (FIG. 6-II) and thalidomide (FIG. 6-III). The cells were additionally treated with fumonisin B1 (FB1), an inhibitor of ceramide synthase (CerS). The inhibition of CerS leads to an intracellular accumulation of the SPT products, namely sphinganine, deoxy-sphinganine. Since the SPT reaction is the rate limiting step in the de novo synthesis pathway, the amount of accumulated sphingoid bases is a measure of the cellular SPT activity. […] Etoposide increased sphinganine and DoxSA production. […] In contrast to paclitaxel and etiposide, the non-cytostatic thalidomide (FIG. 6-III) had no effect.
as §1

HSAN1 mice = experiment: L-serine or L-alanine enriched diet in transgenic HSAN1 mice (C133W SPTLC1); format: in vivo
Excerpt: Mice received an L-serine or L-alanine enriched diet (10% L-Serine or L-Alanine w/w) for a period 15 days. […] Plasma deoxy-sphingolipid levels remained low during the whole treatment period (A, pmol/ml; B, days).
Transgenic mice expressing a mutant (C133W) form of SPTLC1 develop a peripheral neuropathy within 10 to 15 months of life. The development of a neuropathy in these HSAN1 mice correlates with highly elevated deoxy-sphinganine and deoxy-sphingosine plasma levels.

SPT (wt enzyme) = experiment: DoxSA formation in HEK293 wt cells at various L-serine:L-alanine ratios in the presence of FB1; format: cell-based; conditions: increasing L-serine medium concentrations, varying L-alanine concentrations
Description: (§2) HEK293 wt cells (FIG. 7-I) and Hek cells expressing various mutant forms of SPT (wt, C133W, C133Y, V144D) (FIG. 7-II) were cultured at various L-serine:L-alanine ratios in the presence of FB1 (see above Example 1). […] In the second approach L-alanine concentrations were held constant at 2 mM.
as §1, with “The upper phase is discarded and the organic phase washed twice with alkaline water. Lipids are dried under a stream of N2 and resolubilized in 50 μl ethanol (95%) and 100 μl methanol:H2O (85:15).” left out, “OPA derivates are separated on a C18 column. Mobile phase is ammonium acetate (5 mM):methanol=17:83 (25 min, isocratic), followed by a wash with 100% methanol (5 min) at a flow rate of 300 μl/min.” left out

HSAN1 patients = experiment: Oral L-serine supplementation in HSAN1 patients (C133Y); format: in vivo, humans
Description: (A, weeks, B, μM; C, treatment phase; D, washout phase).
14 HSAN1 patients having the C133Y mutation received an oral serine supplementation for a period of 10 weeks followed by a wash out period of two weeks (FIG. 9). Patients were separated in a low dose and a high dose treatment group (n per group=7) receiving either 5 g or 10 g L-serine/day. The plasma sphingolipid composition was analyzed by an acid/base hydrolysis to release the free sphingoid bases. […] In both groups an up to 80% reduction in plasma deoxy-sphingolipid levels was observed. […] During the wash out phase the plasma deoxy-sphingolipid levels raised again.

[2] = test system: mutant forms of SPT (C133W, C133Y, V144D); experiment: DoxSA formation in Hek cells expressing mutant forms of SPT at increasing L-serine in the presence of FB1; format: cell-based; conditions: HSAN1 mutants C133W, increasing L-serine medium concentrations, L-alanine constant at 2 mM
Description: as §2
as §1, with “The upper phase is discarded and the organic phase washed twice with alkaline water. Lipids are dried under a stream of N2 and resolubilized in 50 μl ethanol (95%) and 100 μl methanol:H2O (85:15).” left out, “OPA derivates are separated on a C18 column. Mobile phase is ammonium acetate (5 mM):methanol=17:83 (25 min, isocratic), followed by a wash with 100% methanol (5 min) at a flow rate of 300 μl/min.” left out

[3] = fumonisin B1, 10 mM supplementation

`N[C@H](CO)C(=O)O` [D-serine] was tested, and the SPT activity [1] was “generally inhibitory”.
In the case of `COc1cc([C@@H]2c3cc4c(cc3[C@@H](O[C@@H]3O[C@@H]5CO[C@@H](C)O[C@H]5[C@H](O)[C@H]3O)[C@H]3COC(=O)[C@H]23)OCO4)cc(OC)c1O` [Etoposide, etoposide], the “concentration at which DoxSA showed a maximum” value (cellular SPT activity; fumonisin B1) is reported as 0.5 mM, the DoxSA generation (cellular SPT activity) is reported as “increased” and the “SA (sphinganine) generation / accumulation” value (cellular SPT activity) is reported as “increased in a dose dependant manner”.
`C[C@H](N)C(=O)O` [L-alanine, reference compound] was tested, and the plasma deoxy-sphingolipid levels (HSAN1 mice; enriched diet) was “increased”, the “time to first neuropathic symptoms” value (HSAN1 mice; enriched diet) was 2-3 months and the formation of deoxy-sphinganine [1, 3] was “increased formation”.
In the case of `N[C@@H](CO)C(=O)O` [L-serine], the “plasma deoxy-sphinganine and deoxy-sphingosine levels vs untreated mice” value (HSAN1 mice; enriched diet 10% w/w for 15 days, 3-4 days after start of treatment) is reported as “remarkable reduction”, the “reduction in plasma deoxy-sphinganine and deoxy-sphingosine levels” value (HSAN1 mice; enriched diet 10% w/w, after 4-5 days of treatment) is reported as “up to 80%” and the development of neuropathy (HSAN1 mice; enriched diet, until end of study (18 months), untreated controls neuropathic after 8 to 9 months) is reported as “did not develop a neuropathy”. The DoxSA formation (SPT (wt enzyme)) was “significant decrease”, the “difference between low and high dose group” value (HSAN1 patients; 5 g vs 10 g/day, plasma deoxy-sphingolipid levels) was “No significant differences” and the “time to maximal suppression of plasma deoxy-sphinganine and deoxy-sphingosine levels” value (HSAN1 patients; HSAN1 patients C133Y, oral 5 g or 10 g/day) was 6 weeks. The “reduction in plasma deoxy-sphingolipid levels” value (HSAN1 patients; HSAN1 patients C133Y, oral 5 g or 10 g/day, 10 weeks, both groups) was “up to 80%”, the “deoxy-sphingolipid plasma levels during treatment period” value (HSAN1 patients; HSAN1 patients C133Y, oral treatment over ten weeks, until end of treatment) was “remained suppressed” and the “plasma deoxy-sphingolipid levels during wash out phase” value (HSAN1 patients; two weeks wash out after 10 weeks of treatment) was “raised again”. For the same compound, the formation of sphinganine [1, 3] was “stimulates the formation”, the “generation of deoxy-sphingoid bases” value [1, 3] was “suppresses” and the DoxSA formation [2] was “significant decrease”. The DoxSA formation ([2]; listed as L-erine) was “efficiently inhibited”.
`CC(=O)O[C@H]1C(=O)[C@@]2(C)[C@H]([C@H](OC(=O)c3ccccc3)[C@]3(O)C[C@H](OC(=O)[C@H](O)[C@@H](NC(=O)c4ccccc4)c4ccccc4)C(C)=C1C3(C)C)[C@]1(OC(C)=O)CO[C@@H]1C[C@@H]2O` [Paclitaxel, paclitaxel] was tested, and the DoxSA generation (cellular SPT activity) was “stimulated DoxSA generation in a dose dependant manner” and the “SA (sphinganine) generation / accumulation” value (cellular SPT activity) was “not altered”.
For `N[C@@H]1CON=C1O` [cycloserine, reference compound], the SPT activity [1] was “generally inhibitory”.
With `NCC(=O)O` [glycine, reference compound] the formation of deoxymethyl-sphinganine [1, 3] was “stimulate the formation”.
With `O=C1CCC(N2C(=O)c3ccccc3C2=O)C(=O)N1` (centres unmarked) [thalidomide] the DoxSA generation (cellular SPT activity) was “no effect” and the “SA (sphinganine) generation / accumulation” value (cellular SPT activity) was “no effect”.

— US20130005783A1, “Prevention And Treatment Of Diseases Caused By Elevated Levels Of Deoxy-Sphingolipids” (priority 2010, published 2013)
